In patent publication US7259004B1, “Endophytic streptomycetes from higher plants with biological activity” (Montana State University, priority 2002, dated 2007):

Assays:
[1] = test system: Streptococcus pneumoniae 700674; assay: microbroth dilution MIC
[2] = test system: Candida glabrata ATCC 2001; assay: disk diffusion assay; assay type: cell-based; details: 10 micrograms per disk; 35° C. Note: key: R = resistant.
[3] = test system: Plasmodium falciparum strain CSC-1 (Honduras); assay: antimalarial assay, 3H-phenylalanine radiobioassay in human red blood cells; details: human red blood cells, 3H-phenylalanine; standard deviation of the mean, three experiments
[4] = test system: Listeria monocytogenes 19114; assay: microbroth dilution MIC; assay type: cell-based
Vibrio fischeri PIC 345 = assay: disk diffusion assay; assay type: cell-based; details: 10 micrograms per disk; ciprofloxacin 5, vancomycin 30 micrograms per disk; 35° C.
[5] = test system: Enterococcus faecium ATCC 51559; assay: disk diffusion assay; assay type: cell-based; details: 10 micrograms per disk; ciprofloxacin 5, vancomycin 30 micrograms per disk; 35° C.
Aspergillus fumigatus = assay: microbroth dilution MIC
[6] = test system: Saccharomyces cerevisiae ATCC 9763; assay: disk diffusion assay; assay type: cell-based; details: 10 micrograms per disk; 35° C. Note: key: R = resistant.
[7] = test system: Enterococcus faecalis ATCC 51299; assay: disk diffusion assay; assay type: cell-based; details: 10 micrograms per disk; ciprofloxacin 5, vancomycin 30 micrograms per disk; 35° C.
Bacillus cereus 4342 = assay: microbroth dilution MIC; assay type: cell-based
[8] = test system: Streptococcus pneumoniae 49619; assay: microbroth dilution MIC; assay type: cell-based
[9] = test system: Enterococcus faecalis ATCC 29212; assay: disk diffusion assay; assay type: cell-based; details: 10 micrograms per disk; ciprofloxacin 5, vancomycin 30 micrograms per disk; 35° C.
Candida krusei ATCC 6258 = assay: disk diffusion assay; assay type: cell-based; details: 10 micrograms per disk; 35° C.
[10] = test system: Candida parasilosis ATCC 22019; assay: disk diffusion assay; assay type: cell-based, Candida parapsilosis; details: 10 micrograms per disk; 35° C. Note: key: R = resistant.
S. epidermis ATCC 12228 = assay: disk diffusion assay; assay type: cell-based, Staphylococcus epidermidis; details: 10 micrograms per disk; 35° C.
[11] = test system: Cryptococcus neoformans ATCC 32045; assay: disk diffusion assay; assay type: cell-based; details: 10 micrograms per disk; 35° C.
[12] = test system: Streptococcus pneumoniae ATCC 49619; assay: disk diffusion assay; assay type: cell-based; details: 10 micrograms per disk; ciprofloxacin 5, vancomycin 30 micrograms per disk; MHA with 5% dsb. and 5% CO2
[13] = test system: Escherichia coli ATCC 25922; assay: disk diffusion assay; assay type: cell-based; details: 10 micrograms per disk; penicillin G 10 units per disk; 35° C. Note: key: R = resistant.
S. aureus 29213 = assay: microbroth dilution MIC; assay type: cell-based, Staphylococcus aureus
[14] = test system: Candida tropicalis ATCC 750; assay: disk diffusion assay; assay type: cell-based; details: 10 micrograms per disk; 35° C. Note: key: R = resistant.
Bacillus subtilis = assay: microbroth dilution MIC
[15] = test system: Candida albicans ATCC 24433; assay: disk diffusion assay; assay type: cell-based; details: 10 micrograms per disk; 35° C. Note: key: R = resistant.
[16] = test system: S. maltophilia ATCC 13637; assay: disk diffusion assay; assay type: cell-based, Stenotrophomas maltophilia; details: 10 micrograms per disk; 35° C.
B. subtilis 1A757 = assay: microbe, parasite or virus in culture; assay type: cell-based, Bacillus subtilis
[17] = test system: Enterococcus faecalis ATCC 51299 (VRE); assay: microbroth dilution MIC; assay type: cell-based
[18] = test system: Shigella dysenteriae ATCC 11835; assay: disk diffusion assay; assay type: cell-based; details: 10 micrograms per disk; 35° C.
[19] = test system: Enterococcus faecium ATCC 49624; assay: disk diffusion assay; assay type: cell-based; details: 10 micrograms per disk; ciprofloxacin 5, vancomycin 30 micrograms per disk; 35° C.
brine shrimp = brine shrimp assays; details: preliminary assays
Pythium ultimum = assay: microbroth dilution MIC, plant associated microorganisms; assay type: cell-based; details: PD broth, 48 hours at 23° C.
Method: (§1) Incubation was for 48 hours at 23° C. A plant pathogenic strain of Pseudomonas syringae was also tested using the same PD broth medium and with concentrations of colony forming units as given above. The organisms were obtained from the Montana State University plant pathogen culture collection administered by Dr. […] The relative activities against plant pathogenic fungi ranged from a few tenths of a microgram up to thirty micrograms. Table 2 provides the results of tests of inhibitory activity of the munumbicins against various plant-pathogenic fungi and one pathogenic bacterium. The data are reported as MIC values in micrograms/ml.

Sclerotinia sclerotiorum = assay: as above; assay type: cell-based; details: PD broth, 48 hours at 23° C.
Method: as §1

Rhizoctonia solani = assay: as above; assay type: cell-based; details: PD broth, 48 hours at 23° C.
Method: as §1

Phytophthora cinnamomi = assay: as above; assay type: cell-based; details: PD broth, 48 hours at 23° C.
Method: as §1

Geotrichum candidum = assay: as above; assay type: cell-based; details: PD broth, 48 hours at 23° C.
Method: as §1

Pseudomonas syringae = assay: as above; assay type: cell-based; details: PD broth
Method: as §1

[20] = test system: Staphylococccus aureus 27734; assay: microbroth dilution MIC; assay type: cell-based, Staphylococcus aureus
[21] = test system: Staphylococccus simulans 11631; assay: microbroth dilution MIC; assay type: cell-based, Staphylococcus simulans
Bacillus anthracis K8902 = assay type: cell-based; details: 10 micrograms per disk; ciprofloxacin 5, vancomycin 30 micrograms per disk; 35° C.
[22] = test system: Staphylococcus aureus ATCC 33591 (MRSA); assay: microbroth dilution MIC; assay type: cell-based; details: second listing in Table 4
E. faecium 49624 = assay: microbroth dilution MIC; assay type: cell-based, Enterococcus faecium
S. aureus ATCC 6583P = assay: MIC with and without double stranded DNA; assay type: cell-based, Staphylococcus aureus
[23] = test system: Staphylococcus aureus ATCC 29213; assay: disk diffusion assay; assay type: cell-based; details: 10 micrograms per disk; ciprofloxacin 5, vancomycin 30 micrograms per disk; 35° C.
[24] = DNA +, 20 micrograms per well of sheared salmon sperm DNA

munumbicin C
MIC Streptococcus pneumoniae 700674 [1]: 0.125 micrograms/ml
diameter of the zone of inhibition, Candida glabrata ATCC 2001 [2]: R
IC50 Plasmodium falciparum [3]: 6.5 ng/mL
MIC Listeria monocytogenes 19114 [4]: 4 micrograms/ml
diameter of the zone of inhibition, Vibrio fischeri PIC 345 (Vibrio fischeri PIC 345): 9 mm
diameter of the zone of inhibition, Enterococcus faecium ATCC 51559 [5]: 28 mm
MIC Aspergillus fumigatus (Aspergillus fumigatus): 20 micrograms/ml
diameter of the zone of inhibition, Saccharomyces cerevisiae ATCC 9763 [6]: R
diameter of the zone of inhibition, Enterococcus faecalis ATCC 51299 [7]: 22 mm
MIC Bacillus cereus 4342 (Bacillus cereus 4342): 0.25 micrograms/ml
MIC Streptococcus pneumoniae 49619 [8]: 0.125 micrograms/ml
diameter of the zone of inhibition, Enterococcus faecalis ATCC 29212 [9]: 20 mm
diameter of the zone of inhibition, Candida krusei ATCC 6258 (Candida krusei ATCC 6258): 8 mm
diameter of the zone of inhibition, Candida parasilosis ATCC 22019 [10]: R
diameter of the zone of inhibition, S. epidermis ATCC 12228 (S. epidermis ATCC 12228): R
diameter of the zone of inhibition, Cryptococcus neoformans ATCC 32045 [11]: 12 mm
diameter of the zone of inhibition, Streptococcus pneumoniae ATCC 49619 [12]: 7 mm
diameter of the zone of inhibition, Escherichia coli ATCC 25922 [13]: R
MIC S. aureus 29213 (S. aureus 29213): 1 micrograms/ml
diameter of the zone of inhibition, Candida tropicalis ATCC 750 [14]: R
MIC Bacillus subtilis (Bacillus subtilis; first listing in Table 4): >8 micrograms/ml
MIC Bacillus subtilis (Bacillus subtilis; second listing in Table 4): 0.25 micrograms/ml
diameter of the zone of inhibition, Candida albicans ATCC 24433 [15]: R
diameter of the zone of inhibition, S. maltophilia ATCC 13637 [16]: R
increase of MICs when DNA was added (B. subtilis 1A757; Bacillus subtilis and Staphylococcus aureus, 20 micrograms per well sheared salmon sperm DNA): affected
MIC B. subtilis 1A757 (B. subtilis 1A757; [24]): >32 micrograms/ml
MIC B. subtilis 1A757 (B. subtilis 1A757; DNA −): 0.5 micrograms/ml
MIC Enterococcus faecalis ATCC 51299 ([17]; resistant to vancomycin, first listing in Table 4): 16 micrograms/ml
MIC E. faecalis VRE 51299 ([17]; third listing in Table 4): 0.5 micrograms/ml
diameter of the zone of inhibition, Shigella dysenteriae ATCC 11835 [18]: R
diameter of the zone of inhibition, Enterococcus faecium ATCC 49624 [19]: 23 mm
LC50 brine shrimp (brine shrimp): 2.0 micrograms/ml
MIC Pythium ultimum (Pythium ultimum): 4.0 micrograms/ml
MIC Sclerotinia sclerotiorum (Sclerotinia sclerotiorum): 8.0 micrograms/ml
MIC Rhizoctonia solani (Rhizoctonia solani): 1.5 micrograms/ml
MIC Phytophthora cinnamomi (Phytophthora cinnamomi): 1.5 micrograms/ml
MIC Geotrichum candidum (Geotrichum candidum): 15.6 micrograms/ml
MIC Pseudomonas syringae (Pseudomonas syringae): 15.6 micrograms/ml
MIC Staphylococccus aureus 27734 [20]: 0.5 micrograms/ml
MIC Staphylococccus simulans 11631 [21]: 1 micrograms/ml
diameter of the zone of inhibition, Bacillus anthracis K8902 (Bacillus anthracis K8902): R
MIC MRSA 33591 [22]: 0.5 micrograms/ml
MIC E. faecium 49624 (E. faecium 49624): 0.5 micrograms/ml
MIC S. aureus ATCC 6583P (S. aureus ATCC 6583P; [24]): >32 micrograms/ml
MIC S. aureus ATCC 6583P (S. aureus ATCC 6583P; DNA −): 0.5 micrograms/ml
diameter of the zone of inhibition, Staphylococcus aureus ATCC 29213 [23]: R
